One assay deals with T1, BRD4(BD1) (Homo sapiens, UniProt O60885).
T1 construct: purchased BPS Bioscience
The assay is described as follows: In vitro bromodomain inhibition, BRD4(BD1) / biotinylated H4-tetraacetyl peptide AlphaLISA. The assay is classed as binding. Conditions: His-tagged BRD4 BD1 200 nM, H4 peptide 200 nM, read-out: BRD4α (IC50). The method, then: a) In Vitro Bromodomain Inhibition
To measure activity of bromodomain inhibitors, a His-epitope tagged BRD4 BD149-170 is purchased from BPS Bioscience. BRD4 binding and inhibition is assessed by monitoring the engagement of biotinylated H4-tetraacetyl peptide (H4K5/8/12/16; AnaSpec #64989-025) with the target using the AlphaLISA technology (Perkin-Elmer). Specifically, in a 384 well OptiPlate, BRD4(BD1) (200 nM final) is pre-incubated with either DMSO (final 1.0% DMSO) or a compound dilution series in DMSO. All reagents are diluted in assay buffer containing 50 mM HEPES (pH 7.4), 100 mM NaCl, 0.1% (w/v) BSA, and 0.05% (w/v) CHAPS. After a 30 minute incubation at room temperature, H4 peptide is added (200 nM final) and the reaction is incubated an additional 30 minutes at room temperature. Alpha streptavidin donor beads and AlphaLISA nickel chelate acceptor beads are then added to a final concentration of 10 μg/mL each. After one hour, equilibration plates are read on an Envision instrument and IC50s calculated using a four parameter non-linear curve fit.
A general note: Bead proximity is the source of the signal in Alpha formats.

Assay [1] deals with human C-Myc gene transcription in MV-4-11 cells. The assay is described as follows: Transcription of human C-Myc in human leukemic MV-4-11 cells (QuantiGene 2.0). Conditions: Homo sapiens, MV4-11, 4 h, inhibition of C-Myc mRNA, 4 hours treatment. The assay is classed as cell-based. The method, then:
b) Transcription of Human C-Myc in Human Leukemic MV-4-11 Cells:
The effect of compounds on transcription of human C-Myc gene is monitored in human B-myelomonocytic leukemia cell line MV-4-11 (from American Type Culture Collection (ATCC), Manassas, Va., USA) using QuantiGene 2.0 assay kit (Affymetrix, Santa Clara, Calif., USA).
Typically, 8,000 MV-4-11 cells are plated in sterile 96-well plates (Costar #3598 from Fisher Scientific Canada, Ottawa, Ontario, Canada) in Iscove's medium supplemented with 10% fetal bovine serum, glutamine (2 mM), and penicillin (100 I.U.) and streptomycin (100 μg/mL) (all from Wisent Inc., St. Bruno, Quebec, Canada). Compounds are dissolved in DMSO at 30 mM. A series of 1:3 dilutions are first made in DMSO, and further […] dilutions are made in serum-containing cell culture media. The final concentration of DMSO is […] in cell culture media. After cells are treated with various concentrations of test compound for 4 hours, cells are lysed using Quantigene 2.0 sample processing kit (#QS0100). C-Myc mRNA is detected using a QuantiGene 2.0 assay kit (#QS0009) with gene-specific probe to human C-Myc (#SA-50182) following the manufacturer's recommendations. Luminescene signals are read on Flexstation II microplate reader (Molecular Devices, Sunnyvale, Calif., USA). Percentage of inhibition of C-Myc transcription is analyzed using EXCEL (2010 version).

Regarding `Cc1cc(-c2ccc3ncc(Cc4ccccc4)n3c2)cn(C)c1=O` [Compound 1, 5-(3-benzylimidazo[1,2-a]pyridin-6-yl)-1,3-dimethyl-pyridin-2-one], the IC50 (usually the midpoint of a concentration-inhibition curve) stood at 122 nM at BRD4(BD1) and 58 nM in assay [1].
With `Cc1cc(-c2ccc3ncc(Cc4ccc(F)cc4)n3c2)cn(C)c1=O` [Compound 2, 5-[3-[(4-fluorophenyl)methyl]imidazo[1,2-a]pyridin-6-yl]-1,3-dimethyl-pyridin-2-one], the IC50 at BRD4(BD1) is 99.5 nM; in assay [1], 59.2 nM.
The like results for `Cc1cc(-c2ccc3ncc(Cc4ccc(Cl)cc4)n3c2)cn(C)c1=O` [Compound 3, 5-[3-[(4-chlorophenyl)methyl]imidazo[1,2-a]pyridin-6-yl]-1,3-dimethyl-pyridin-2-one] were, in that order, 143 nM and 86.3 nM.
Turning to `COc1ccc(Cc2cnc3ccc(-c4cc(C)c(=O)n(C)c4)cn23)cc1` [Compound 4, 5-[3-[(4-methoxyphenyl)methyl]imidazo[1,2-a]pyridin-6-yl]-1,3-dimethyl-pyridin-2-one], the IC50 on BRD4(BD1) was found to be 313 nM; in assay [1], 276 nM.
In the same order, the values of `Cc1cc(-c2ccc3ncc(Cc4cccc(F)c4)n3c2)cn(C)c1=O` [Compound 5, 5-[3-[(3-fluorophenyl)methyl]imidazo[1,2-a]pyridin-6-yl]-1,3-dimethyl-pyridin-2-one] are 113 nM and 93.9 nM.
As for `Cc1cc(-c2ccc3ncc(CN4CCCCC4)n3c2)cn(C)c1=O` [Compound 8, 1,3-dimethyl-5-[3-(1-piperidylmethyl)imidazo[1,2-a]pyridin-6-yl]pyridin-2-one], the IC50 at BRD4(BD1) amounted to 195 nM; in assay [1], 844 nM.
In the same order, the values of `Cc1cc(-c2ccc3ncc(COC4CCCC4)n3c2)cn(C)c1=O` [Compound 9, 5-[3-(cyclopentoxymethyl)imidazo[1,2-a]pyridin-6-yl]-1,3-dimethyl-pyridin-2-one] are 153 nM and 152 nM.
As for `Cc1cc(-c2ccc3ncc(CNc4ccccc4)n3c2)cn(C)c1=O` [Compound 10, 5-[3-(anilinomethyl)imidazo[1,2-a]pyridin-6-yl]-1,3-dimethyl-pyridin-2-one], the values for the IC50 (on BRD4(BD1); in assay [1]) were 318 nM and 837 nM, respectively.
In turn, `Cc1nc2ccc(-c3cc(C)c(=O)n(C)c3)cn2c1Cc1cccnc1` [Compound 55, 1,3-dimethyl-5-[2-methyl-3-(3-pyridylmethyl)imidazo[1,2-a]pyridin-6-yl] pyridin-2-one] came in with an IC50 in assay [1] of 84.5 nM.
Still for that read-out and setting: for `Cc1nc2ccc(-c3cc(C)c(=O)n(C)c3)cn2c1Cc1ccncc1` [Compound 56, 1,3-dimethyl-5-[2-methyl-3-(4-pyridylmethyl)imidazo[1,2-a]pyridin-6-yl] pyridin-2-one] the value was 153 nM.

The record behind these values is US10501459B2, “Substituted imidazo[1,2-a]pyridines as bromodomain inhibitors” (NEOMED Institute, priority 2015, dated 2019).
